Measured values published in US9980490B1, “Method of disinfecting bacterial contaminated surfaces or removing bacteria from contaminated surfaces” (priority 2014, dated 2018).
Like-named read-outs stand apart in the source and are kept apart here.

Columns and labels:
Streptococcus Group A = settings: even numbered C8 to C18 fatty acids screened; cited from earlier work
Staphlycoccus aureous = settings: even numbered C8 to C18 fatty acids screened; cited from earlier work
Candida albicans = settings: even numbered C8 to C18 fatty acids screened; cited from earlier work
[1] = system: Enterococcus faecalis (gram positive); assay: Suspension time-kill test of aqueous ammonium nonanoate, survivors assayed after neutralization; type: cell-based; settings: 1% aqueous solution, 1 minute exposure, ambient temperature
Description: (§1) There were no other ingredients in these solutions except the ammonium salts and water. […] Suspensions of test bacteria were exposed to the 1% and 2% ammonium nonanoate solutions for specified exposure times at ambient temperature. After exposure, aliquots of the suspensions were transferred to neutralizer and assayed for survivors. Appropriate culture purity, neutralizer sterility, test population, and neutralization confirmation controls were performed. […] This is a reduction of live bacteria of >99.999%.

[2] = system: Escherichia coli (gram negative); assay: as above; type: cell-based; settings: 1% aqueous solution, 1 minute exposure, ambient temperature
Description: as §1

Staphylococcus aureous = assay: Suspension time-kill test of aqueous ammonium nonanoate; type: cell-based; settings: 2% aqueous solution, 2 minutes
Description: as §1

[3] = system: pseudomonas aeruginosa (gram negative); assay: as above; type: cell-based; settings: 2% aqueous solution, 1 minute
Description: as §1

[4] = Highest aqueous concentration before salt precipitates; type: physicochemical; settings: room temperature; above this insoluble salt precipitates
Description: The final salt (soap) product, ammonium nonanoate, is made by neutralization by mixing the oleic-derived nonanoic acid with an equal molar amount of ammonia dissolved in water until a clear one-phase solution with a pH range of 7.5 to 8.5 occurs. At this point all of the acid is converted to ammonium salt: none remains in the product. […] The final concentration of ammonium nonanoate depends on the amount of water used. The highest concentration that can be made is approximately 40% since above this concentration at room temperature, insoluble salt precipitates as a solid.

mammals and birds = settings: EPA Biochemical Division registration as bioherbicide; cited from earlier work
[5] = according to the EPA; cited from earlier work
mice = settings: oral, Federal Register; cited from earlier work
human skin = settings: 12% solution, 48 hr. closed patch test; cited from earlier work
rats [6] = settings: cited from earlier work; for LD50: oral, Federal Register
rats [7] = settings: cited from earlier work

SMILES: CCCCCCCCCC(=O)O [capric acid]
- antimicrobial activity relative to other fatty acids tested (Streptococcus Group A): highest activity
- antimicrobial activity relative to other fatty acids tested (Staphlycoccus aureous): highest activity
- antimicrobial activity relative to other fatty acids tested (Candida albicans): highest activity

SMILES: CCCCCCCCC(=O)O.N [ammonium nonanoate]
- log reduction in the population [1]: 5 log
- reduction of live bacteria [1]: > 99.999%
- log reduction in the population [2]: 5 log
- reduction of live bacteria [2]: > 99.999%
- reduction in population (Staphylococcus aureous): > 99.999%
- reduction in population [3]: > 99.999%
- highest concentration that can be made in water [4]: approximately 40%
- toxicity to mammals and birds (mammals and birds): non-toxic
- time to biodegradation after formation [5]: ≤ 24 h

SMILES: CCCCCCCCC(=O)O [nonanoic acid]
- LD50 (mice): 5,000 mg/kg
- irritation on human skin (human skin): no irritation
- oral LD50 (rats [6]; male rats): > 9,000 mg/kg
- LD50 (rats [6]; rats, indicated by no death at 3,200 mg/kg): over 3,200 mg/kg
- LD50 (rats [6]; rats): 5,000 mg/kg
- oral LD50 (rats [6]; rats, Patty's Industrial Hygiene and Toxicology): 15 g/kg
- death of rats (rats [6]; undiluted, oral, 3,200 mg/kg body weight, Federal Register Vol. 69 No. 52 p. 12672): did not cause death of any of the rats
- mortality (rats [7]; 0.46 mg/liter as an aerosol for four hours): no mortality
- symptoms of toxicity (rats [7]; atmospheric concentration (125 ppm), 6 hours): no symptoms of toxicity
